Assay results published in patent US20260022142A1, “MACROCYCLIC IMMUNOMODULATORS” (Bristol-Myers Squibb Company, priority 2022, published 2026).
Numbered stars: 1 amine (or outer) side, 2 acyl side, 3 side chain; on linkers, the order of the positions; unused ones are H or OH. Bridge positions count the residues as written; N and C are the ends. Square brackets hold non-standard residues; d marks the D form. Peptide text beside a SMILES is read from it. * marks the point of attachment. ξ: configuration not given here. Bip = N[C@@H](Cc1ccc(-c2ccccc2)cc1)C(=O)O; Phe(3-Me) = Cc1cccc(C[C@H](N)C(=O)O)c1; γGlu = O=C(O)[C@H](CCC(=O)[*:2])N[*:1]; Cha = N[C@@H](CC1CCCCC1)C(=O)O; Thr(3ξ) = CC(O)[C@H](N)C(=O)O; 12Ado = NCCCCCCCCCCCC(=O)O; Carboxymethyl = O=C(O)C*; Orn = NCCC[C@H](N)C(=O)O; Aun = NCCCCCCCCCCC(=O)O; Dab = NCC[C@H](N)C(=O)O; Dap = NC[C@H](N)C(=O)O; AEEA = NCCOCCOCC(=O)O

biological target: T1, PD-1/PD-L1 interaction (PE-labeled human PD-L1-Ig binding to Jurkat cell line over-expressing human PD-1) (Homo sapiens, UniProt Q15116); assay: Jurkat-PD-1 Cell Binding High-Content Screening Assay (CBA); assay type: cell-based; conditions: Jurkat cell line over-expressing human PD-1; PE-labeled PD-L1-Ig 20 nM final; read-out: Jurkat hPD1-PDL1 IC50
T1 construct: expressed in transfected cells; host or cells: Jurkat
How it was run: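 Jurkat cells stably over-expressing human PD-1 were seeded in DMEM with 10% fetal calf serum and pre-incubated with compound for 2 h at 37° C. PE-labeled human PD-L1-Ig was then added at 20 nM final for 1 hour, after which cells were fixed with paraformaldehyde, Hoechst-stained and imaged by high-content microscopy.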

T1 sequence (Q15116 25-288): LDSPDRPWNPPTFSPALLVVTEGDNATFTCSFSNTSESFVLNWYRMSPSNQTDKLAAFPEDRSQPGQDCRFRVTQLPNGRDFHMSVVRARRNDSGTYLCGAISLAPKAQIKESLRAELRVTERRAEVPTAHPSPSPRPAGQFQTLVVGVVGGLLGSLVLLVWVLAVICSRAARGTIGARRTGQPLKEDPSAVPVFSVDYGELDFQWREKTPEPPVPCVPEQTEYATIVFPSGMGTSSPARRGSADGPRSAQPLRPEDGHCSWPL

IC50 [nM]	Compound
94.7	CC(=O)NCCCC[C@@H]1NC(=O)[C@H](Cc2ccc(-c3ccccc3)cc2)NC(=O)[C@H](CCNC(C)=O)NC(=O)[C@H](Cc2cccc(C)c2)NC(=O)[C@H](CC(=O)O)NC(=O)[C@H](Cc2ccc(OCC(=O)O)cc2)NC(=O)[C@H](Cc2ccc(OCC(=O)O)cc2)NC(=O)CSC[C@@H](C(=O)N[C@@H](CCN)C(=O)N[C@@H](CO)C(=O)NCCCCCCCCCCCC(=O)O)NC(=O)[C@H](Cc2cnc[nH]2)NC(=O)[C@H](C(C)O)NC(=O)[C@H](CC2CCCCC2)NC(=O)[C@H](CCN)NC(=O)[C@@H](CC(C)C)NC(=O)[C@H](CCCN)NC1=O (stereo partly drawn) [Compound 3646] ({CH2CO}-Y(Carboxymethyl)Y(Carboxymethyl)D[Phe(3-Me)][Dab](Ac)[Bip]K(Ac)[Orn][dL][Dab][Cha][Thr(3ξ)]HC[Dab]S[12Ado]-OH; thioether N-14)
27.7	CC(C)C[C@H]1NC(=O)[C@H](CCCN)NC(=O)[C@H](C(C)C)NC(=O)[C@H](Cc2ccc(-c3ccccc3)cc2)NC(=O)[C@H](C(C)C)NC(=O)[C@H](Cc2c[nH]c3ccccc23)NC(=O)[C@H](CC(=O)O)NC(=O)[C@H](Cc2ccc(OCC(=O)O)cc2)NC(=O)[C@H](CN)NC(=O)CSC[C@@H](C(=O)N[C@@H](CCN)C(=O)NCCCCCCCCCCC(=O)O)NC(=O)[C@H](CN)NC(=O)[C@H](C(C)O)NC(=O)[C@H](CC2CCCCC2)NC(=O)[C@H](CCN)NC1=O (stereo partly drawn) [Compound 3647] ({CH2CO}-[Dap]Y(Carboxymethyl)DWV[Bip]V[Orn][dL][Dab][Cha][Thr(3ξ)][Dap]C[Dab][Aun]-OH; thioether N-14)
21.5	CC(C)C[C@H]1NC(=O)[C@H](CCCN)NC(=O)[C@H](C(C)C)NC(=O)[C@H](Cc2ccc(-c3ccccc3)cc2)NC(=O)[C@H](C(C)C)NC(=O)[C@H](Cc2c[nH]c3ccccc23)NC(=O)[C@H](CC(=O)O)NC(=O)[C@H](Cc2ccc(OCC(=O)O)cc2)NC(=O)[C@H](CN)NC(=O)CSC[C@@H](C(=O)N[C@@H](CCN)C(=O)NCCCCCCCCCCC(=O)O)NC(=O)[C@H](CCCCN)NC(=O)[C@H](C(C)O)NC(=O)[C@H](CC2CCCCC2)NC(=O)[C@H](CCN)NC1=O (stereo partly drawn) [Compound 3648] ({CH2CO}-[Dap]Y(Carboxymethyl)DWV[Bip]V[Orn][dL][Dab][Cha][Thr(3ξ)]KC[Dab][Aun]-OH; thioether N-14)
7.5	CC(C)C[C@H]1NC(=O)[C@H](CCCN)NC(=O)[C@H](C(C)C)NC(=O)[C@H](Cc2ccc(-c3ccccc3)cc2)NC(=O)[C@H](C(C)C)NC(=O)[C@H](Cc2c[nH]c3ccccc23)NC(=O)[C@H](CC(=O)O)NC(=O)[C@H](Cc2ccc(OCC(=O)O)cc2)NC(=O)[C@H](CN)NC(=O)CSC[C@@H](C(=O)N[C@@H](CCN)C(=O)NCCOCCOCC(=O)N[C@@H](CCC(=O)NCCCCCCCCCCC(=O)O)C(=O)O)NC(=O)[C@H](CN)NC(=O)[C@H](C(C)O)NC(=O)[C@H](CC2CCCCC2)NC(=O)[C@H](CCN)NC1=O (stereo partly drawn) [Compound 3649] ({CH2CO}-[Dap]Y(Carboxymethyl)DWV[Bip]V[Orn][dL][Dab][Cha][Thr(3ξ)][Dap]C[Dab][AEEA][γGlu][Aun]-OH; thioether N-14)
17.5	CC(C)C[C@H]1NC(=O)[C@H](CCCN)NC(=O)[C@H](C(C)C)NC(=O)[C@H](Cc2ccc(-c3ccccc3)cc2)NC(=O)[C@H](C(C)C)NC(=O)[C@H](Cc2c[nH]c3ccccc23)NC(=O)[C@H](CC(=O)O)NC(=O)[C@H](Cc2ccc(OCC(=O)O)cc2)NC(=O)[C@H](CN)NC(=O)CSC[C@@H](C(=O)N[C@@H](CCN)C(=O)NCCOCCOCC(=O)N[C@@H](CCC(=O)NCCCCCCCCCCC(=O)O)C(=O)O)NC(=O)[C@H](CCCCN)NC(=O)[C@H](C(C)O)NC(=O)[C@H](CC2CCCCC2)NC(=O)[C@H](CCN)NC1=O (stereo partly drawn) [Compound 3650] ({CH2CO}-[Dap]Y(Carboxymethyl)DWV[Bip]V[Orn][dL][Dab][Cha][Thr(3ξ)]KC[Dab][AEEA][γGlu][Aun]-OH; thioether N-14)
24.1	CC(C)C[C@H]1NC(=O)[C@H](CCCN)NC(=O)[C@H](C(C)C)NC(=O)[C@H](Cc2ccc(-c3ccccc3)cc2)NC(=O)[C@H](C(C)C)NC(=O)[C@H](Cc2c[nH]c3ccccc23)NC(=O)[C@H](CC(=O)O)NC(=O)[C@H](Cc2ccc(OCC(=O)O)cc2)NC(=O)[C@H](CN)NC(=O)CSC[C@@H](C(=O)N[C@@H](CCN)C(=O)NCCCCCCCCCCC(=O)O)NC(=O)[C@H](CO)NC(=O)[C@H](C(C)O)NC(=O)[C@H](CC2CCCCC2)NC(=O)[C@H](CCN)NC1=O (stereo partly drawn) [Compound 3651] ({CH2CO}-[Dap]Y(Carboxymethyl)DWV[Bip]V[Orn][dL][Dab][Cha][Thr(3ξ)]SC[Dab][Aun]-OH; thioether N-14)
22.1	CC(C)C[C@H]1NC(=O)[C@H](CCCN)NC(=O)[C@H](C(C)C)NC(=O)[C@H](Cc2ccc(-c3ccccc3)cc2)NC(=O)[C@H](C(C)C)NC(=O)[C@H](Cc2c[nH]c3ccccc23)NC(=O)[C@H](CC(=O)O)NC(=O)[C@H](Cc2ccc(OCC(=O)O)cc2)NC(=O)[C@H](CN)NC(=O)CSC[C@@H](C(=O)N[C@@H](CCN)C(=O)NCCCCCCCCCCC(=O)O)NC(=O)[C@H](Cc2cnc[nH]2)NC(=O)[C@H](C(C)O)NC(=O)[C@H](CC2CCCCC2)NC(=O)[C@H](CCN)NC1=O (stereo partly drawn) [Compound 3652] ({CH2CO}-[Dap]Y(Carboxymethyl)DWV[Bip]V[Orn][dL][Dab][Cha][Thr(3ξ)]HC[Dab][Aun]-OH; thioether N-14)
45.1	CC(C)C[C@H]1NC(=O)[C@H](CCCN)NC(=O)[C@H](Cc2ccc(O)cc2)NC(=O)[C@H](Cc2ccc(-c3ccccc3)cc2)NC(=O)[C@H](C(C)C)NC(=O)[C@H](Cc2c[nH]c3ccccc23)NC(=O)[C@H](CC(=O)O)NC(=O)[C@H](Cc2ccc(OCC(=O)O)cc2)NC(=O)[C@H](CN)NC(=O)CSC[C@@H](C(=O)N[C@@H](CCN)C(=O)NCCCCCCCCCCC(=O)O)NC(=O)[C@H](CN)NC(=O)[C@H](C(C)O)NC(=O)[C@H](CC2CCCCC2)NC(=O)[C@H](CCN)NC1=O (stereo partly drawn) [Compound 3654] ({CH2CO}-[Dap]Y(Carboxymethyl)DWV[Bip]Y[Orn][dL][Dab][Cha][Thr(3ξ)][Dap]C[Dab][Aun]-OH; thioether N-14)
61.8	CC(C)C[C@H]1NC(=O)[C@H](CCCN)NC(=O)[C@H](Cc2ccc(O)cc2)NC(=O)[C@H](Cc2ccc(-c3ccccc3)cc2)NC(=O)[C@H](C(C)C)NC(=O)[C@H](Cc2c[nH]c3ccccc23)NC(=O)[C@H](CC(=O)O)NC(=O)[C@H](Cc2ccc(OCC(=O)O)cc2)NC(=O)[C@H](CN)NC(=O)CSC[C@@H](C(=O)N[C@@H](CCN)C(=O)NCCCCCCCCCCC(=O)O)NC(=O)[C@H](CCCCN)NC(=O)[C@H](C(C)O)NC(=O)[C@H](CC2CCCCC2)NC(=O)[C@H](CCN)NC1=O (stereo partly drawn) [Compound 3655] ({CH2CO}-[Dap]Y(Carboxymethyl)DWV[Bip]Y[Orn][dL][Dab][Cha][Thr(3ξ)]KC[Dab][Aun]-OH; thioether N-14)
178	CC(C)C[C@H]1NC(=O)[C@H](CCCN)NC(=O)[C@H](Cc2ccc(O)cc2)NC(=O)[C@H](Cc2ccc(-c3ccccc3)cc2)NC(=O)[C@H](Cc2ccc(O)cc2)NC(=O)[C@H](Cc2c[nH]c3ccccc23)NC(=O)[C@H](CC(=O)O)NC(=O)[C@H](Cc2ccc(OCC(=O)O)cc2)NC(=O)[C@H](CN)NC(=O)CSC[C@@H](C(=O)N[C@@H](CCN)C(=O)NCCCCCCCCCCC(=O)O)NC(=O)[C@H](CN)NC(=O)[C@H](C(C)O)NC(=O)[C@H](CC2CCCCC2)NC(=O)[C@H](CCN)NC1=O (stereo partly drawn) [Compound 3656] ({CH2CO}-[Dap]Y(Carboxymethyl)DWY[Bip]Y[Orn][dL][Dab][Cha][Thr(3ξ)][Dap]C[Dab][Aun]-OH; thioether N-14)
121	CC(C)C[C@H]1NC(=O)[C@H](CCCN)NC(=O)[C@H](Cc2ccc(O)cc2)NC(=O)[C@H](Cc2ccc(-c3ccccc3)cc2)NC(=O)[C@H](Cc2ccc(O)cc2)NC(=O)[C@H](Cc2c[nH]c3ccccc23)NC(=O)[C@H](CC(=O)O)NC(=O)[C@H](Cc2ccc(OCC(=O)O)cc2)NC(=O)[C@H](CN)NC(=O)CSC[C@@H](C(=O)N[C@@H](CCN)C(=O)NCCCCCCCCCCC(=O)O)NC(=O)[C@H](CCCCN)NC(=O)[C@H](C(C)O)NC(=O)[C@H](CC2CCCCC2)NC(=O)[C@H](CCN)NC1=O (stereo partly drawn) [Compound 3657] ({CH2CO}-[Dap]Y(Carboxymethyl)DWY[Bip]Y[Orn][dL][Dab][Cha][Thr(3ξ)]KC[Dab][Aun]-OH; thioether N-14)
88	CC(C)C[C@@H]1NC(=O)[C@H](Cc2c[nH]c3ccccc23)NC(=O)[C@H](CC(=O)O)NC(=O)[C@H](Cc2ccc(OCC(=O)O)cc2)NC(=O)[C@H](CN)NC(=O)CSC[C@@H](C(=O)N[C@@H](CCN)C(=O)NCCCCCCCCCCC(=O)O)NC(=O)[C@H](CN)NC(=O)[C@H](C(C)O)NC(=O)[C@H](CC2CCCCC2)NC(=O)[C@H](CCN)NC(=O)[C@@H](CC(C)C)NC(=O)[C@H](CCCN)NC(=O)[C@H](Cc2ccc(O)cc2)NC(=O)[C@H](Cc2ccc(-c3ccccc3)cc2)NC1=O (stereo partly drawn) [Compound 3658] ({CH2CO}-[Dap]Y(Carboxymethyl)DWL[Bip]Y[Orn][dL][Dab][Cha][Thr(3ξ)][Dap]C[Dab][Aun]-OH; thioether N-14)
47.6	Cc1cccc(C[C@@H]2NC(=O)[C@H](CC(=O)O)NC(=O)[C@H](Cc3ccc(OCC(=O)O)cc3)NC(=O)[C@H](CN)NC(=O)CSC[C@@H](C(=O)N[C@H](CC(N)=O)C(=O)NCCCCCCCCCCC(=O)O)NC(=O)[C@H](CO)NC(=O)[C@H](C(C)O)NC(=O)[C@H](CC3CCCCC3)NC(=O)[C@H](CCN)NC(=O)[C@@H](CC(C)C)NC(=O)[C@H](CCCN)NC(=O)[C@H](Cc3ccc(OCC(=O)O)cc3)NC(=O)[C@H](Cc3ccc(-c4ccccc4)cc3)NC(=O)[C@H](Cc3ccc(OCC(=O)O)cc3)NC2=O)c1 (stereo partly drawn) [Compound 3659] ({CH2CO}-[Dap]Y(Carboxymethyl)D[Phe(3-Me)]Y(Carboxymethyl)[Bip]Y(Carboxymethyl)[Orn][dL][Dab][Cha][Thr(3ξ)]SC[dN][Aun]-OH; thioether N-14)
